This test concerns the target T1, human DHFR (Homo sapiens, UniProt P00374).
T1 sequence (P00374 1-187): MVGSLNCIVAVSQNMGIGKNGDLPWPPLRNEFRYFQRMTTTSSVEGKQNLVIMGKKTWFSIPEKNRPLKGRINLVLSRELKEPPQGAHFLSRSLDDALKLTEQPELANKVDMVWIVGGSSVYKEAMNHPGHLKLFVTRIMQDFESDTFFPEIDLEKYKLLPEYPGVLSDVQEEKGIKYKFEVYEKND
Briefly: enzyme kinetic assay. The test is classed as biochemical.

Ki data for one molecule are collected here from article PMC3830934 (Science (New York, N.Y.), 2002).

`CC1(C)N=C(N)N=C(N)N1OCCCOc1cc(Cl)c(Cl)cc1Cl` [WR99210] returned a Ki of 12 nM.

By Ki is commonly meant a dissociation constant, usually derived from enzyme kinetics or from competition with a known ligand.
